Each structure is given as a SMILES string.

This data set in a line: gradient 5% acetonitrile 3 min, to 50% in 2 min, to 85% in 15 min, held 3 min, 100 µL/min. Conditions: column: Zorbax Extend-C18 2.1 x 50 mm; eluents: water / acetonitrile, 0.1% formic acid. Summed up:
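Over 3 months, pure standards in mixtures of ~100 molecules were run by HPLC coupled to a quadrupole time-of-flight mass spectrometer in positive and negative ionization mode. The column was a Zorbax Extend-C18 (2.1 × 50 mm, 1.8 μm) at 100 μL/min, eluted with water and acetonitrile each holding 0.1% formic acid, with 40 μL dead and 900 μL dwell volumes. Retention time was determined from adduct peaks chosen by software and checked manually.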
`Cn1c(N2CCN(S(=O)(=O)c3cc(F)ccc3F)CC2)nc2ccccc21` yielded an RP-LC retention time of 601 s.

On to `Cc1ccccc1OCc1nc(-c2ccc3ncn(C(C)C)c3c2)no1`, for which the RP-LC retention time worked out at 839 s.

On to `Cc1ccc(-c2csc(NC(=O)CSc3nc4c(cc3C#N)CCCC4)n2)cc1`, for which the RP-LC retention time was found to be 1290 s.

`CCCCN(C)S(=O)(=O)c1cc(-c2nc(C)cs2)n(CC(=O)N2CCCCC2)c1`: the RP-LC retention time came out at 1080 s.

Take `O=C(Nc1cccc2ccccc12)c1ccccc1`: the RP-LC retention time turned out to be 923 s.

In turn, `Cc1cccc(C)c1-n1ccn(Cc2nc(-c3ccc(Cl)cc3)no2)c(=O)c1=O` displayed an RP-LC retention time of 978 s.

As to `O=C1NC(=S)S/C1=C\c1ccccc1C(=O)O`, the RP-LC retention time worked out at 835 s.

`CN(CCc1noc(-c2ccc(C(=O)N3CCOCC3)cc2)n1)C(=O)Cc1ccc(Cl)cc1`: the RP-LC retention time is 757 s.

For `O=C(NCCc1c[nH]c2ccccc12)c1cc2cccnc2n(Cc2ccc(F)cc2)c1=O`, the RP-LC retention time stood at 1090 s.

For `COc1ccc(NC(=O)Cn2ncc3c(N4CCN(c5ccccn5)CC4)ncnc32)cc1Cl`, the RP-LC retention time worked out at 642 s.

Take `CC(C)c1nnc(-c2cccnc2N2CCN(C(=O)C3CCCO3)CC2)o1` (stereo not given): the RP-LC retention time stood at 675 s.

For `COCC(=O)NC1CCN(c2ccccc2)C1=O` (stereo not given), the RP-LC retention time is 617 s.

Turning to `CCc1cc(=O)n(CC(=O)Nc2cc(C)on2)c(-c2ccccc2)n1`, the RP-LC retention time was determined as 938 s.

Regarding `CCn1c(C(=O)NC2CCCCCC2)cc2sc(Cl)cc21`, the RP-LC retention time is 1290 s.

Turning to `Cc1cccc(C)c1NC(=O)N1CCN(CCn2c(C(C)C)nc3cccnc32)CC1`, the RP-LC retention time was determined as 602 s.

Turning to `O=C(Cn1c(=O)c2cccn2c2ccc(F)cc21)NCCCN1CCc2ccccc2C1`, the RP-LC retention time came to 664 s.

Regarding `Cc1cc(C)c(S(=O)(=O)N2CCc3c(c(-c4nnc(-c5ccccc5)o4)nn3C)C2)c(C)c1`, the RP-LC retention time came out at 1090 s.

For `O=C(Cc1cccc(F)c1)Nc1nnc(SCc2nnc(-c3ccccc3)o2)s1`, the RP-LC retention time was 873 s.

With `Cc1cccn2c(NCc3ccccc3)c(-c3ccccc3OC(=O)C(C)Cl)nc12` (stereo not given), the RP-LC retention time is 1210 s.

For the compound `COC(=O)c1cccc(C(=O)Nc2ccc(Cl)cc2C)n1`, the RP-LC retention time was found to be 971 s.

`Cc1ccc(-c2cc3c4nnc(SCC(=O)Nc5ccc(Cl)cc5)n4ccn3n2)cc1C` had an RP-LC retention time of 1080 s.

`COC(=O)c1cc2c(=O)n(-c3ccc(Cl)c(C(F)(F)F)c3)ccc2nc1C` came in with an RP-LC retention time of 992 s.

For the compound `Cc1ccc(-c2coc(-c3ccc(NC(=O)NCCc4ccccc4)cc3)n2)c(C)c1`, the RP-LC retention time was determined as 1260 s.

As to `O=C(Cc1csc(NC(=O)c2ccc[nH]c2=O)n1)NCc1cccs1`, the RP-LC retention time was determined as 626 s.

With `CCCNC(=O)C1CCN(c2ccc(SCC(=O)Nc3ccc(C)c(F)c3)nn2)CC1`, the RP-LC retention time worked out at 679 s.

`O=C(Cn1nc(S(=O)(=O)c2ccc(Cl)cc2)ccc1=O)N1CCN(c2ccc(F)cc2)CC1` gave an RP-LC retention time of 910 s.

As to `Cc1ccc(C(=O)N2CCC(COc3ccc(C(=O)NC(C)C)cc3)CC2)cc1C`, the RP-LC retention time is 916 s.

Regarding `CCCn1c(=O)c(N2CCN(C(=O)CC3CCCC3)CC2)nc2ccccc21`, the RP-LC retention time was found to be 1130 s.

In turn, `CN(CC1CCOC1)C(=O)NCc1ccc(F)cc1` (stereo not given) gave an RP-LC retention time of 669 s.

Compound `CC(=O)c1ccc(NC(=O)CCc2c(C)nn(-c3cc(N(C)C)ncn3)c2C)cc1` returned an RP-LC retention time of 749 s.

In the case of `CCCCNC(=O)C1CCCN(c2ccc(-c3ccc(C)c(C)c3)nn2)C1` (stereo not given), the RP-LC retention time was determined as 735 s.

Compound `CC1CCN(c2nc(-c3ccc(C(C)(C)C)cc3)nc3ccccc23)CC1` showed an RP-LC retention time of 1070 s.

Take `CN1CCN(CCNC(=O)c2cnn3c4c(cnc23)CCCCCC4)CC1`: the RP-LC retention time worked out at 599 s.

`CCS(=O)(=O)N1CCC(Cn2c(C)cnc2-c2ccccc2)C1` (stereo not given): the RP-LC retention time amounted to 576 s.

Turning to `Cc1cccc(C)c1Nc1c(-c2ccc(N3CCOCC3)cc2)nc2cnccn12`, the RP-LC retention time was determined as 755 s.

With `Cc1ccc(CNC(=O)C2CC(=O)N(c3ccc4oc(C)nc4c3)C2)cc1` (stereo not given), the RP-LC retention time stood at 732 s.

`CC(C)C(=O)Nc1cn(-c2ccc(C(=O)Nc3ccc4c(c3)OCCO4)cc2)cn1` gave an RP-LC retention time of 808 s.

`Cn1cc(-c2nnc(SCC(=O)N3CCc4ccccc43)n2C)c(-c2ccccc2)n1` returned an RP-LC retention time of 766 s.

Compound `CCCNC(=O)c1cc(-c2ccccc2)cn1CC` returned an RP-LC retention time of 977 s.

In turn, `Fc1cnccc1CN1CC2(CCCCC2)CC1COc1ccncc1` (stereo not given) came in with an RP-LC retention time of 747 s.

With `CCc1ccc(CNC(=O)c2cc3c(=O)n(C)c(=O)n(C)c3s2)cc1`, the RP-LC retention time worked out at 830 s.

As for `Cc1ccc(C(=O)Nc2ccc3c(c2)Sc2ncccc2C(=O)N3C)cc1C`, the RP-LC retention time was 876 s.

Take `CCCn1c(C2CCN(S(=O)(=O)c3ccccc3)C2)nc2cccnc21` (stereo not given): the RP-LC retention time turned out to be 783 s.

Consider `O=C(NCCc1csc(-c2ccccc2)n1)C1CCN(C(=O)CCc2ccccc2)CC1`, for which the RP-LC retention time was 859 s.

In turn, `COc1ccc(C2(C(=O)N3C[C@@H](CO)[C@H](c4nc(C)no4)C3)CC2)cc1` yielded an RP-LC retention time of 665 s.

`Cn1cccc1CN(C(=O)COc1ccc(Cl)cc1Cl)C1CC1` registered an RP-LC retention time of 1040 s.

For `CCOC(=O)c1[nH]c(C)c(C(=O)N2CCC(CC(=O)NC3CC3)CC2)c1C`, the RP-LC retention time is 628 s.

As to `CS(=O)(=O)Nc1ccc(-c2noc(CNC(=O)c3ccccc3)n2)cc1`, the RP-LC retention time was found to be 704 s.

`CCNC(=O)N1CC=C(C(=O)Nc2ccc(C)cc2)CC1` returned an RP-LC retention time of 798 s.

The compound `CC(=O)Nc1cc(-c2nc(-c3ccc4oc(C)nc4c3)no2)ccc1C` had an RP-LC retention time of 803 s.

The compound `COc1ccc(NC(=O)N(C)CCc2noc(-c3ccc(Cl)cc3)n2)c(OC)c1` returned an RP-LC retention time of 959 s.

Turning to `CN1C2CCC1CC(OC(=O)c1cc(Cl)cc(Cl)c1)C2` (stereo not given), the RP-LC retention time stood at 669 s.

For the compound `Cc1cc(C(=O)N2CC(C(=O)NCCc3ccc(F)cc3)C2)no1`, the RP-LC retention time stood at 680 s.

`Cc1oc(-c2[nH]ncc2C(=O)N2CCOCC2)cc1S(=O)(=O)NC1CC1` came in with an RP-LC retention time of 607 s.

`CCCS(=O)(=O)N1CC(n2cc(C(=O)N3CCCC3)nn2)C1` had an RP-LC retention time of 654 s.

In turn, `O=c1c2cc(-c3ccc(Br)cc3)nn2cnn1Cc1nc(-c2ccc(F)cc2)no1` registered an RP-LC retention time of 1210 s.

`Cc1ccc(CN2CCCN(CC(=O)NC(C)CCc3ccccc3)S2(=O)=O)cc1` (stereo not given) returned an RP-LC retention time of 1050 s.

Take `Cc1cnc(-c2ccccc2)n1C1CCN(S(=O)(=O)Cc2ccccc2)CC1`: the RP-LC retention time amounted to 686 s.

Turning to `CCC(=O)N1CC(n2cc(C(=O)NCC3CC3)nn2)C1`, the RP-LC retention time is 617 s.

Regarding `CCS(=O)(=O)N1CCCc2cc(C(=O)Nc3ccc4c(c3)OCCO4)ccc21`, the RP-LC retention time was found to be 858 s.

Consider `Cc1ccc2oc(N3CCN(C(=O)c4ccc(-c5noc(C6CC6)n5)cc4)CC3)nc2n1`, for which the RP-LC retention time is 670 s.

Compound `Cc1ccc(-c2csc(Nc3ccc(Br)cn3)n2)cc1C` showed an RP-LC retention time of 1340 s.

On to `COC(=O)c1ccccc1NC(=O)Cn1c(=O)c(CCC(=O)NC2CCCC2)nc2ccccc21`, for which the RP-LC retention time came out at 898 s.

Take `Cc1cc(C)c(NC(=O)C23CCC(C)(C(=O)O2)C3(C)C)c([N+](=O)[O-])c1` (stereo not given): the RP-LC retention time was found to be 884 s.

Take `Cc1ccc(NC(=O)Cn2c(-c3cnccn3)nc(C)c(C)c2=O)cc1Cl`: the RP-LC retention time came out at 842 s.

Take `CNC(=O)c1cn(CC(C)C)c(=O)c2ccccc12`: the RP-LC retention time came out at 853 s.

`CCc1cccc(C)c1N(C(=O)CSCc1nc2ccccc2[nH]1)C(C)COC` (stereo not given) came in with an RP-LC retention time of 635 s.

`Cc1ccc(S(=O)(=O)NC(C)c2nc(-c3ccc(NS(C)(=O)=O)cc3)no2)cc1` (stereo not given) displayed an RP-LC retention time of 817 s.

For `Cc1cccc(C)c1OCC(=O)Nc1nc(-c2ccccc2)cs1`, the RP-LC retention time is 1180 s.

Compound `CCCn1cc(C2=CCN(C(=O)Nc3ccc(OC)cc3)CC2)c2cccnc21` displayed an RP-LC retention time of 858 s.

For the compound `Cc1ccc(S(=O)(=O)N2CCC(CCC(=O)N3CCN(C)CC3)CC2)cc1`, the RP-LC retention time worked out at 627 s.

Regarding `O=C(NCCC1=CCCCC1)C1CCN(Cc2cc3ccccc3n2Cc2ccccc2Cl)CC1`, the RP-LC retention time amounted to 924 s.

In the case of `CC(NC(=O)c1ccco1)c1nc2ccccc2n1CC(=O)N1CCCC1` (stereo not given), the RP-LC retention time was found to be 614 s.

Take `Cn1c(N2CCN(C(=O)c3ccc(F)c(Cl)c3)CC2)cc(=O)n(C)c1=O`: the RP-LC retention time is 686 s.

As to `CCC(=O)N1CCc2sc(S(=O)(=O)N3CCN(c4cccc(C)c4)CC3)cc2C1`, the RP-LC retention time was 1010 s.

Consider `COCCn1cc(CCNC(=O)Nc2cccc(Br)c2)c2cccnc21`, for which the RP-LC retention time was 783 s.

In the case of `Cc1nnc(N2CCCC(C(=O)NCc3cccc(F)c3)C2)c2nn(-c3ccccc3)c(C)c12` (stereo not given), the RP-LC retention time worked out at 716 s.

The compound `O=C(NCc1ccco1)c1c(-c2ccccc2)nnc2ccccc12` returned an RP-LC retention time of 756 s.

`O=C(Nc1ccc(OCc2nnc(-c3ccccc3)o2)cc1)C1CCC1` showed an RP-LC retention time of 878 s.

Consider `CCCc1ccc(S(=O)(=O)N2CCc3nc[nH]c3C2)cc1`, for which the RP-LC retention time is 656 s.

Source of the values: the METLIN SMRT retention time set (Domingo-Almenara et al. 2019).
